Reference: ChEMBL document CHEMBL5260810, “Inhibition of bromodomain-containing protein 9 for the prevention of epigenetically-defined drug resistance” (Bioorg Med Chem Lett, 2017)
Calls of active or inactive are those of the source. The calls are words filed in the database; no cut-off is given here.

Legend:
[1] = target: T1, Bromodomain-containing protein 4 (Homo sapiens, UniProt O60885); experiment: Displacement of biotinylated small-molecule ligand from recombinant His-tagged BRD4 bromodomain 1 (unknown origin) measured after 10 mins by TR-FRET assay
[2] = target: T1, Bromodomain-containing protein 4; experiment: Displacement of biotinylated small-molecule ligand from recombinant His-tagged BRD4 bromodomain 2 (unknown origin) measured after 10 mins by TR-FRET assay
[3] = target: Transcription initiation factor TFIID subunit 1 (Homo sapiens, UniProt P21675); experiment: Displacement of biotinylated small-molecule ligand from recombinant His-tagged TAF1 bromodomain 2 (unknown origin) measured after 10 mins by TR-FRET assay
Chain of Transcription initiation factor TFIID subunit 1 (P21675 whole entry): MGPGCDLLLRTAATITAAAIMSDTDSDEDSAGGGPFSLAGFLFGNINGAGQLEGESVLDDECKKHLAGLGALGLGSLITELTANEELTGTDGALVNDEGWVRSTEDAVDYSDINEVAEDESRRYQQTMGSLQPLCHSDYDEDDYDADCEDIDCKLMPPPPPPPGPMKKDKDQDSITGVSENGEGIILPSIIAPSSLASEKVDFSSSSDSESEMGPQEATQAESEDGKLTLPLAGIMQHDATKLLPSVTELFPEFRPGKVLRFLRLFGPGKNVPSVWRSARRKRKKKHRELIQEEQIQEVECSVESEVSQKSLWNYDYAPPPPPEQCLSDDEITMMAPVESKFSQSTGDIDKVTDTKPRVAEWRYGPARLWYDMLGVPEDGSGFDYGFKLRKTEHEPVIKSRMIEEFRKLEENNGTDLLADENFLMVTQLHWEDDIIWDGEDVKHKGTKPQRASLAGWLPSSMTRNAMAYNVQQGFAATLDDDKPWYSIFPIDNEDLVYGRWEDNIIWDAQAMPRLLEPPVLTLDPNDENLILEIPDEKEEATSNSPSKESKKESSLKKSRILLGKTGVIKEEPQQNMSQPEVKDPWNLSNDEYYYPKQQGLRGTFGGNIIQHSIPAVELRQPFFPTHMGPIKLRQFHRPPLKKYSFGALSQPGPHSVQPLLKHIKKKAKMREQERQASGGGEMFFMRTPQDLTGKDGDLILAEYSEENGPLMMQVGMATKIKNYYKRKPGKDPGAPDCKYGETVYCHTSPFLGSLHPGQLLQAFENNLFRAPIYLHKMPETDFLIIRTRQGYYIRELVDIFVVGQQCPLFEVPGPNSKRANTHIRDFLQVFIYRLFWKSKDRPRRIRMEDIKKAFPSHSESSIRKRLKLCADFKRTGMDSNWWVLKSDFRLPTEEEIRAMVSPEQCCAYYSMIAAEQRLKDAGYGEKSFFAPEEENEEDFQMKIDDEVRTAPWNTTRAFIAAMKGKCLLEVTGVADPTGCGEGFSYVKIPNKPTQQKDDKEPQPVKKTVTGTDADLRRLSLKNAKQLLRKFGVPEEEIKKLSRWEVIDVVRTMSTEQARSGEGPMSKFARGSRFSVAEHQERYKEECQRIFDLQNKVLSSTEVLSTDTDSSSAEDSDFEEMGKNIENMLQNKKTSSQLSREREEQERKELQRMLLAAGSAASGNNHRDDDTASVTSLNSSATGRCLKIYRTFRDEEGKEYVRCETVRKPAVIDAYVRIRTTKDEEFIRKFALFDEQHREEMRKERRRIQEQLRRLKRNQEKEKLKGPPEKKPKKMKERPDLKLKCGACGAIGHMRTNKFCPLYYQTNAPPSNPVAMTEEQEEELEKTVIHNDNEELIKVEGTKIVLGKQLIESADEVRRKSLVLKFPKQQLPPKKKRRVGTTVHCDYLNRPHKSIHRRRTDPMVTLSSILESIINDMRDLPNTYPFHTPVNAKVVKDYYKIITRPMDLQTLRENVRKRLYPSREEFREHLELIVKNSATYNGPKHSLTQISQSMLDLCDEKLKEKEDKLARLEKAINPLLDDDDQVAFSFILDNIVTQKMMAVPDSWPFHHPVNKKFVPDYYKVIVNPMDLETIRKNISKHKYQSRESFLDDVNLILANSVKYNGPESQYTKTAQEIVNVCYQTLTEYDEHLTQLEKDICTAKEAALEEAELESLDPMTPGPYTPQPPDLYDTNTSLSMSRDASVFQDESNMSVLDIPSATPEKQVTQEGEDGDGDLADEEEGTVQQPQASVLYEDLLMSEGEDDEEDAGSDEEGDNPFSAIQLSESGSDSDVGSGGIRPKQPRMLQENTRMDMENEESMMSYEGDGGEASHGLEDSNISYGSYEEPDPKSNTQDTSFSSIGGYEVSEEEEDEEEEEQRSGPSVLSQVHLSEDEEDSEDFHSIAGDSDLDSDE

[4] = target: Chromatin remodeling regulator CECR2 (Homo sapiens, UniProt Q9BXF3); experiment: Displacement of biotinylated small-molecule ligand from recombinant His-tagged CECR2 (unknown origin) measured after 10 mins by TR-FRET assay
Chain of Chromatin remodeling regulator CECR2 (Q9BXF3 whole entry): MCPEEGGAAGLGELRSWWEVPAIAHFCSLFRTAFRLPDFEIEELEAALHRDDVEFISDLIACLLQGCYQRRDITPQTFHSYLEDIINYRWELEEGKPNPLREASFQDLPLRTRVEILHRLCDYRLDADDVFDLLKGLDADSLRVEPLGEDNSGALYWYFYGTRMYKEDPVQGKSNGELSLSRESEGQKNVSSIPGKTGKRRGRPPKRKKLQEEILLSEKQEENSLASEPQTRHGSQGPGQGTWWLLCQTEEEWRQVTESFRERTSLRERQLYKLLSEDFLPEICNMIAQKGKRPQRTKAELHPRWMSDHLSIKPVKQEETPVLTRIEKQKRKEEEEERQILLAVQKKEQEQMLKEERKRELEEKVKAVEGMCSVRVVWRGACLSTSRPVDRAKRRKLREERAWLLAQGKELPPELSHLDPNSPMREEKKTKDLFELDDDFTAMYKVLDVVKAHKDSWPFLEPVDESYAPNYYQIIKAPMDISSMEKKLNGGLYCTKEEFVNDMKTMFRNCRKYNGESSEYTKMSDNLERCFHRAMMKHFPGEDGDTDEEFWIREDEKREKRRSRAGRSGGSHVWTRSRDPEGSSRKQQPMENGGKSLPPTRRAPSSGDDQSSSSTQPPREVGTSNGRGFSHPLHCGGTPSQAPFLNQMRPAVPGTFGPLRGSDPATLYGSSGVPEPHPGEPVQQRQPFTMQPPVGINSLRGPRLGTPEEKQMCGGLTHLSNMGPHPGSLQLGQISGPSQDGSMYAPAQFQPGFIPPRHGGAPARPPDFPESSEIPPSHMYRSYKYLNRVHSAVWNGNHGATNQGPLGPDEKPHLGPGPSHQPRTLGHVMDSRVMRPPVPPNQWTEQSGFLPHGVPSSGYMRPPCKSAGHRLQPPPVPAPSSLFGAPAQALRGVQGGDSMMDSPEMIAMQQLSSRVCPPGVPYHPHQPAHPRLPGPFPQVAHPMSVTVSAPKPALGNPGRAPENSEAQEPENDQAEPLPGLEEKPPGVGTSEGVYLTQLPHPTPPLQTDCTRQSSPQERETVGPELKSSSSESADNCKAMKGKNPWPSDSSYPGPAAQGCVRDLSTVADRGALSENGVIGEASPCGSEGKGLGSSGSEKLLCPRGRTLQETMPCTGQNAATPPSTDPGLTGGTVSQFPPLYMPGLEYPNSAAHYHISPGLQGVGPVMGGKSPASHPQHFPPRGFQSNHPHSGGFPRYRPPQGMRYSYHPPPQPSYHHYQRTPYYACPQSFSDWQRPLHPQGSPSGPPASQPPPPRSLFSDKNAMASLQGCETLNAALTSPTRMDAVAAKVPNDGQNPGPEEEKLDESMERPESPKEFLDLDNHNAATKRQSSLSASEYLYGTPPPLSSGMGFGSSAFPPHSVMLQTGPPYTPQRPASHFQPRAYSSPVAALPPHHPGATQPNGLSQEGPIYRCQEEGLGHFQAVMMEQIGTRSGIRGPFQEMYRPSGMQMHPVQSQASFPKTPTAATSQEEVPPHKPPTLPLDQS

PC-9 [5] = experiment: Cytotoxicity against human PC-9 cells assessed as decrease in cell number at 1 uM supplemented with fresh medium containing compound every 3 days for 9 days by Beckman Coulter counting method; format: functional; design: scale not given: the % may be the effect or the level left; conditions: time 3 day
PC-9 [6] = experiment: Cytotoxicity against human PC-9 cells assessed as decrease in drug tolerant population at 50 nM supplemented with fresh medium containing compound every 3 days for 9 days in presence of erlotinib by Beckman Coulter counting method; format: functional, cell-based; conditions: time 9.0 day
PC-9 [7] = experiment: Cytotoxicity against human PC-9 cells assessed as decrease in cell number at 50 nM supplemented with fresh medium containing compound every 3 days for 9 days by Beckman Coulter counting method; format: functional, cell-based; conditions: time 3.0 day

## C/C=C/Cn1cc(-c2ccc(C(=O)N3CCOCC3)cc2)c2cc(C)[nH]c2c1=O
[1]
  IC50: 1.6 µM
[2]
  IC50: 6.7 µM
[3]
  IC50: 0.75 µM
[4]
  IC50: 0.81 µM

## C/C=C/Cn1cc(-c2ccc(C(=O)N3CCOCC3)c(OC)c2)c2cc(C)[nH]c2c1=O
[1]
  IC50: 3.3 µM
[2]
  IC50: 17.4 µM
[3]
  IC50: 1.7 µM
[4]
  IC50: 1 µM

## C/C=C/Cn1cc(-c2ccc(C(=O)N3CCOCC3)c(Cl)c2)c2cc(C)[nH]c2c1=O
[1]
  IC50: 3.5 µM
[2]
  IC50: 12.3 µM
[3]
  IC50: 1.4 µM
[4]
  IC50: 0.46 µM

## C/C=C/Cn1cc(-c2ccc(C(=O)N3CCOCC3)c(C#N)c2)c2cc(C)[nH]c2c1=O
[1]
  IC50: 4.2 µM
[2]
  IC50: 13.5 µM
[3]
  IC50: 0.52 µM
[4]
  IC50: 0.37 µM

## C/C=C/Cn1cc(-c2ccc(C(=O)N3CCOCC3)c(C)c2)c2cc(C)[nH]c2c1=O
[1]
  IC50: 6 µM
[2]
  IC50: 14.4 µM
[3]
  IC50: 2.8 µM
[4]
  IC50: 1 µM

## C#Cc1cccc(Nc2ncnc3cc(OCCOC)c(OCCOC)cc23)c1 [ERLOTINIB]
PC-9 [5]
  Activity: >98%

## CC(/C=C/C(=O)NO)=C\[C@@H](C)C(=O)c1ccc(N(C)C)cc1
PC-9 [6]
  Activity: Active
PC-9 [7]
  Activity: inactive

## C/C=C/Cn1cc(-c2ccc(C(C)(C)O)cc2)c2cc[nH]c2c1=O
[1]
  IC50: 3.3 µM
[2]
  IC50: 6.1 µM
[3]
  IC50: 5.5 µM
[4]
  IC50: 4.7 µM
